How the values were obtained:
Experiment in all cases: Bactericidal activity, log10 CFU/ml after 0, 30 and 60 minutes
Format in all cases: cell-based
[1] = tested on: Escherichia coli ATCC 47076; details: baseline 7.3
Description: A frozen stock of E. coli ATCC 47076 was grown overnight (1 ml in 9 ml LB medium) in a shaker incubator (200 rpm at 37° C.) until the OD600nm of the medium reached 1.6-1.8. […] The Bacterial suspension was adjusted to 10^8 CFU/ml by dilution with sterile medium. The Bacterial cells were then washed three times with 0.9% NaNO3. The NaNo3 washing cycles was performed by transferring 5 ml of the bacterial suspensions into 15 ml test tubes and subjecting the suspension to centrifugation at 4000 rpm at 4° C. for 5 minutes, followed by removal of the supernatant and re-suspension of the bacterial cell pellet in 5 ml of 0.9% NaNO3. The bactericidal activity of various concentration combinations of silver ions (from AgNO3) and menthol (solubilized by the addition of 0.5% TWEEN 20) was then assessed by adding 5 ml of the tested combinations to the bacterial cell pellets prepared as described hereinbelow and re-suspending the cell pellets by vortex. A test tube containing only 0.9% NaNO3 served as control. The bacterial suspensions thus obtained were transferred to sterile glass tubes to reduce potential cell adsorption to the walls, and kept covered at 37° C. throughout the testing period. Following 5 minutes of static incubation, 100 μl samples of the treated bacterial suspension were removed, and […] decimal dilutions in NaNO3 0.9% of the suspension were dropped onto LB agar plates. The level of bacterial proliferation was assessed by counting the number of colonies that grew on the plates and calculating the CFU/ml and log10 CFU/ml following 18 hours of incubation at 37° C. Higher log10 CFU/ml calculated for a bacterial suspension, incubated with a specific combination, is indicative of a lower level of bactericidal activity of that combination. The bacterial growth protocol was essentially as described above only that bacteria cell lines were grown in BHI growth medium (and following the growth of the cells in the medium, the bacterial suspension was adjusted to 10^7 CFU/ml by dilution with sterile medium). In addition, in these experiments, the static incubation of each bacterial suspension with the silver ion+menthol combination was for 0, 30 and 60 minutes. […] Cells incubated with NaNO3 0.9% (w/v) solution alone, without the addition of any antiseptic agent, served as control. […] S. Block, Editor. 2000, Lippincott Williams and Wilkins, pp 1305-1328. […] A baseline level was defined as the observed bacteria growth at time 0 when no antiseptic agent was added to the bacterial suspension.

Klebsiella pneumoniae = details: baseline 6.8
Excerpt: (§1) Various bacterial cells lines were obtained from the clinical strains collection of the Laboratory of Molecular Epidemiology and Antimicrobial Resistance, Tel Aviv Sourasky Medical Center. The bactericidal activity of the tested antiseptic combinations was thus tested against Klebsiella pneumoniae, a Methicillin Resistant clinical strain of Staphylococcus aureus (MRSA), a clinical strain of Staphylococcus epidermis, a clinical strain of Extended Spectrum β-lactamase producing Escherichia coli, a clinical strain of Multi Drug Resistant Acinetobacter baumannii, and a clinical strain of Multi Drug Resistant Pseudomonas aeruginosa.
(§2) The bacterial growth protocol was essentially as described above only that bacteria cell lines were grown in BHI growth medium (and following the growth of the cells in the medium, the bacterial suspension was adjusted to 10^7 CFU/ml by dilution with sterile medium). In addition, in these experiments, the static incubation of each bacterial suspension with the silver ion+menthol combination was for 0, 30 and 60 minutes.
(§3) The effect of a combination of 0.01% silver ions and 0.05% menthol (solubilized by 0.5% (v/v) TWEEN 20) on the growth and viability of various types of bacteria was evaluated.
(§4) Cells incubated with NaNO3 0.9% (w/v) solution alone, without the addition of any antiseptic agent, served as control.
(§5) Table 2 presents the log10 CFU/ml calculated for different types of bacterial cell suspensions incubated for 0, 30 and 60 minutes with no antiseptic agent (control) or either 0.01% silver ions (0.01% AgNO3) alone, 0.05% menthol alone or a combination of 0.01% silver ions and 0.05% menthol. A baseline level was defined as the observed bacteria growth at time 0 when no antiseptic agent was added to the bacterial suspension.

[2] = tested on: clinical strain of Extended Spectrum β-lactamase producing Escherichia coli; details: baseline 5.9
Excerpt: as §1, §2, §3, §4, §5

[3] = tested on: clinical strain of Staphylococcus epidermis; details: baseline 5.4
Excerpt: as §1, §2, §3, §4, §5

[4] = tested on: clinical strain of Multi Drug Resistant Acinetobacter baumannii; details: baseline 6.4
Excerpt: as §1, §2, §3, §4, §5

[5] = tested on: clinical strain of Multi Drug Resistant Pseudomonas aeruginosa; details: baseline 6.5
Excerpt: as §1, §2, §3, §4, §5

[6] = tested on: Methicillin Resistant clinical strain of Staphylococcus aureus (MRSA); details: baseline 6.1
Excerpt: as §1, §2, §3, §4, §5

Row | Structure (SMILES) | log10 CFU/ml of bacteria ([1]; treated for 0 minutes) | log10 CFU/ml of bacteria ([1]; treated for 30 minutes) | log10 CFU/ml of bacteria ([1]; treated for 60 minutes) | log10 CFU/ml of bacteria (Klebsiella pneumoniae; treated for 0 minutes) | log10 CFU/ml of bacteria (Klebsiella pneumoniae; treated for 30 minutes) | log10 CFU/ml of bacteria (Klebsiella pneumoniae; treated for 60 minutes) | log10 CFU/ml of bacteria ([2]; treated for 0 minutes) | log10 CFU/ml of bacteria ([2]; treated for 30 minutes) | log10 CFU/ml of bacteria ([2]; treated for 60 minutes) | log10 CFU/ml of bacteria ([3]; treated for 0 minutes) | log10 CFU/ml of bacteria ([3]; treated for 30 minutes) | log10 CFU/ml of bacteria ([3]; treated for 60 minutes) | log10 CFU/ml of bacteria ([4]; treated for 0 minutes) | log10 CFU/ml of bacteria ([4]; treated for 30 minutes) | log10 CFU/ml of bacteria ([4]; treated for 60 minutes) | log10 CFU/ml of bacteria ([5]; treated for 0 minutes) | log10 CFU/ml of bacteria ([5]; treated for 30 minutes) | log10 CFU/ml of bacteria ([5]; treated for 60 minutes) | log10 CFU/ml of bacteria ([6]; treated for 0 minutes) | log10 CFU/ml of bacteria ([6]; treated for 30 minutes) | also measured
1 | CC(C)[C@H]1CC[C@@H](C)C[C@@H]1O [0.05% Menthol, 5-methyl-2-propan-2-yl-cyclohexan-1-ol] | 5.3 log10 CFU/ml | 0 log10 CFU/ml | 0 log10 CFU/ml | 6.2 log10 CFU/ml | 4.9 log10 CFU/ml | 3.8 log10 CFU/ml | 4.9 log10 CFU/ml | 4.9 log10 CFU/ml | 4.9 log10 CFU/ml | 5.4 log10 CFU/ml | 5.4 log10 CFU/ml | 5.3 log10 CFU/ml | 6.4 log10 CFU/ml | 6.3 log10 CFU/ml | 6.2 log10 CFU/ml | 5.8 log10 CFU/ml | 3.5 log10 CFU/ml | 2.5 log10 CFU/ml | 6.3 log10 CFU/ml | 6.3 log10 CFU/ml | log10 CFU/ml of bacteria ([6]; treated for 60 minutes): 6.2 log10 CFU/ml
2 | O=[N+]([O-])[O-].[Ag+] [0.01% AgNO3, silver nitrate] | 6.4 log10 CFU/ml | 0 log10 CFU/ml | 0 log10 CFU/ml | 0 log10 CFU/ml | 0 log10 CFU/ml | 0 log10 CFU/ml | 4.8 log10 CFU/ml | 0 log10 CFU/ml | 0 log10 CFU/ml | 0 log10 CFU/ml | 0 log10 CFU/ml | 0 log10 CFU/ml | 6.3 log10 CFU/ml | 0 log10 CFU/ml | 0 log10 CFU/ml | 5.1 log10 CFU/ml | 0 log10 CFU/ml | 0 log10 CFU/ml | 5.4 log10 CFU/ml | 0 log10 CFU/ml | log10 CFU/ml of bacteria ([6]; treated for 60 minutes): 0 log10 CFU/ml
